Results reported in PMC6094047 (Antiviral Research, 2018).
Where two headings read alike, the source gives them in different places.

What was measured:
[1] = tested on: A(H3N2) virus neuraminidase (NA); format: biochemical, influenza A(H3N2) virus
[2] = tested on: B/Victoria-lineage virus neuraminidase (NA); conditions: cited from earlier work
[3] = tested on: B/Yamagata-lineage virus neuraminidase (NA); parameters: method as in Gubareva et al., 2017a; Monto et al., 2006; conditions: ref Gubareva et al., 2017a, Monto et al., 2006, cited from earlier work
influenza [4] = tested on: influenza; parameters: method as in Rossignol, 2018; conditions: vs placebo, twice daily for 5 days, subjects enrolled within 36 h of symptom onset and followed up daily; ref Rossignol, 2018; cited from earlier work
uncomplicated influenza [5] = tested on: uncomplicated influenza; parameters: method as in Hayden, 2018; conditions: phase III, given <48 h after onset of symptoms; ref Hayden, 2018; cited from earlier work
uncomplicated influenza [6] = conditions: phase III, ref Epstein, 2017; cited from earlier work
influenza [7] = tested on: influenza; parameters: method as in Haffizula et al., 2014; conditions: 600 mg twice daily for five days, ref Haffizula et al., 2014, cited from earlier work
[8] = frequency of reported adverse events similar to placebo; cited from earlier work
[9] = B/Victoria-lineage NA A245T, ref Leang et al., 2014
[10] = B/Victoria-lineage NA D197N, ref Gubareva et al., 1998, 2017b, Ison et al., 2006, Mishin et al., 2005

Structure (SMILES): [H]/N=C(\N)N[C@H]1C=C(C(=O)O)O[C@@H]([C@H](OC)[C@H](O)CO)[C@@H]1NC(C)=O [Laninamivir]
- IC50 fold-change compared to reference median IC50 values [1]: 17 fold

Structure (SMILES): CCOC(=O)C1=C[C@@H](OC(CC)CC)[C@H](NC(C)=O)[C@@H](N)C1 [Oseltamivir]
- inhibition phenotype associated with NA AAS (NI/RI/HRI) [2, 9]: RI (type B viruses 5- to 50-fold)
- inhibition phenotype associated with NA AAS (NI/RI/HRI) [2, 10]: RI (type B viruses 5- to 50-fold)
- fold increase in IC50 ([3]; B/Yamagata-lineage NA I221T): greater than 5 fold
- improvement in median time to alleviation of symptoms (influenza [4]): 50 h

Structure (SMILES): CCC(CC)[C@H](NC(C)=O)[C@@H]1[C@H](O)[C@@H](C(=O)O)C[C@H]1N=C(N)N [Peramivir]
- IC50 fold-change compared to reference median IC50 values [1]: 5.3 fold
- inhibition phenotype (NI/RI/HRI) [1]: NI (key: normal inhibition (NI) (type A viruses <10-fold; reduced inhibition (RI) (type A viruses 10- to 100-fold; highly reduced inhibition (HRI) (type A viruses >100-fold)
- inhibition phenotype associated with NA AAS (NI/RI/HRI) [2, 9]: RI (type B viruses 5- to 50-fold)
- inhibition phenotype associated with NA AAS (NI/RI/HRI) [2, 10]: RI (type B viruses 5- to 50-fold)
- inhibition phenotype associated with NA AAS (NI/RI/HRI) ([2]; B/Victoria-lineage NA K360E, D432G or H273Y, ref WHO-AVWG NAI substitution table): RI (type B viruses 5- to 50-fold)
- inhibition phenotype associated with NA AAS (NI/RI/HRI) ([3]; B/Yamagata-lineage NA I221V and I221T): RI (type B viruses 5- to 50-fold)

Structure (SMILES): CC(=O)N[C@H]1[C@H]([C@H](O)[C@H](O)CO)OC(C(=O)O)=C[C@@H]1N=C(N)N [Zanamivir]
- inhibition phenotype associated with NA AAS (NI/RI/HRI) [2, 9]: RI (type B viruses 5- to 50-fold)
- inhibition phenotype associated with NA AAS (NI/RI/HRI) [2, 10]: RI (type B viruses 5- to 50-fold)

Structure (SMILES): O=C1c2c(O)c(=O)ccn2N([C@@H]2c3ccccc3SCc3c2ccc(F)c3F)[C@@H]2COCCN12 [baloxavir, Baloxavir]
- alleviation of symptoms faster than placebo (uncomplicated influenza [5]): 26.5 h

Structure (SMILES): NC(=O)c1nc(F)c[nH]c1=O [favipiravir, Favipiravir]
- reduction of median time to alleviation of symptoms compared to placebo (uncomplicated influenza [6]): 6 to 14 h

Structure (SMILES): CC(=O)Oc1ccccc1C(=O)Nc1ncc([N+](=O)[O-])s1 [nitazoxanide, Nitazoxanide]
- median improvement in alleviation of influenza symptoms (influenza [7]; enrolled within 48 h of symptom onset, p = 0.0084): 22 h
- virus shedding (influenza [7]; p = 0.0006): significant reduction
- improvement in median time to alleviation of symptoms (influenza [4]): 50 h
- tolerability, adverse events [8]: well tolerated
